Measured values as given in patent US20140364428A1, “5-(3-AMINOPHENYL)-5-ALKYL-5,6-DIHYDRO-2H-[1,4]OXAZIN-3-AMINE DERIVATIVES” (Janssen Pharmaceutica NV, priority 2011, published 2014).

Legend:
BACE1 = target: T1, BACE1 (Homo sapiens, UniProt P56817); experiment: Biochemical FRET based assay; settings: recombinant BACE1 protein, APP derived 13 amino acids peptide substrate ('Swedish' mutation), 120 minutes at room temperature, pH 5.0; read-out: Biochemical FRET based assay pIC50 (converted)
T1 construct: recombinant BACE1 protein in a final concentration of 1 mg/ml
T1 sequence (P56817 46-501): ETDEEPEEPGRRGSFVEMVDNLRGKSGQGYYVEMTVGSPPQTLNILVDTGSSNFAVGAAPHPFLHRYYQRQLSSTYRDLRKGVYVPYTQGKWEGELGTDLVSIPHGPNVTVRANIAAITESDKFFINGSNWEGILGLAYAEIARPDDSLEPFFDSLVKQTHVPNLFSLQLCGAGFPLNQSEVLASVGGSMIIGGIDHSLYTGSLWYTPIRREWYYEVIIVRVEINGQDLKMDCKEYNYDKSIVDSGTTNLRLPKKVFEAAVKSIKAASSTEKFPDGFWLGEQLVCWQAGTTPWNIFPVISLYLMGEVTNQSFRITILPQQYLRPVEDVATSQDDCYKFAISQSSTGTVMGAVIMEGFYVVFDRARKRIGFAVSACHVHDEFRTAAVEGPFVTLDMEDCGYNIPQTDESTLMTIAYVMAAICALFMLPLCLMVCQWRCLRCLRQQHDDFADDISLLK
Text: This assay is a Fluorescence Resonance Energy Transfer Assay (FRET) based assay. The substrate for this assay is an APP derived 13 amino acids peptide that contains the ‘Swedish’ Lys-Met/Asn-Leu mutation of the amyloid precursor protein (APP) beta-secretase cleavage site. This substrate also contains two fluorophores: (7-methoxycoumarin-4-yl) acetic acid (Mca) is a fluorescent donor with excitation wavelength at 320 nm and emission at 405 nm and 2,4-Dinitrophenyl (Dnp) is a proprietary quencher acceptor. […] Upon cleavage by BACE1, the fluorophore Mca is separated from the quenching group Dnp, restoring the full fluorescence yield of the donor. The increase in fluorescence is linearly related to the rate of proteolysis.
Briefly in a 384-well format recombinant BACE1 protein in a final concentration of 1 mg/ml is incubated for 120 minutes at room temperature with […] in incubation buffer (40 mM Citrate buffer pH 5.0, 0.04% PEG, 4% DMSO) in the absence or presence of compound. Next the amount of proteolysis is directly measured by fluorescence measurement at T=0 and T=120 (excitation at 320 nm and emission at 405 nm). Results are expressed in RFU (Relative Fluorescence Units), as difference between T120 and TO.
(§1) A best-fit curve is fitted by a minimum sum of squares method to the plot of % Controlmin versus compound concentration. From this an IC50 value (inhibitory concentration causing 50% inhibition of activity) can be obtained.

[1] = test system: Abeta 1-42 produced and secreted into the medium of human neuroblastoma SKNBE2 cells; experiment: Cellular αLisa assay in SKNBE2 cells, Abeta 1-42; type: cell-based; settings: SKNBE2 cells expressing wild type hAPP695, incubated for 18 hours, read-out: Cellular αLisa assay in SKNBE2 cells Abeta 42 pIC50 (converted)
Protocol: (§2) In two αLisa assays the levels of Abeta total and Abeta 1-42 produced and secreted into the medium of human neuroblastoma SKNBE2 cells are quantified. The assay is based on the human neuroblastoma SKNBE2 expressing the wild type Amyloid Precursor Protein (hAPP695). The compounds are diluted and added to these cells, incubated for 18 hours and then measurements of Abeta 1-42 and Abeta total are taken. Abeta total and Abeta 1-42 are measured by sandwich αLisa. αLisa is a sandwich assay using biotinylated antibody AbN/25 attached to streptavidin coated beads and antibody Ab4G8 or cAb42/26 conjugated acceptor beads for the detection of Abeta total and Abeta 1-42 respectively. In the presence of Abeta total or Abeta 1-42, the beads come into close proximity. The excitation of the donor beads provokes the release of singlet oxygen molecules that trigger a cascade of energy transfer in the acceptor beads, resulting in light emission. Light emission is measured after 1 hour incubation (excitation at […] and emission at 615 nm).
as §1

[2] = test system: Abeta total produced and secreted into the medium of human neuroblastoma SKNBE2 cells; experiment: Cellular αLisa assay in SKNBE2 cells, Abeta total; type: cell-based; settings: SKNBE2 cells expressing wild type hAPP695, incubated for 18 hours, read-out: Cellular αLisa assay in SKNBE2 cells Abetatotal pIC50 (converted)
Protocol: as §2, §1

| Compound | IC50 (BACE1) [nM] | IC50 [1] [nM] | IC50 [2] [nM] | melting point [°C] |
| --- | --- | --- | --- | --- |
| COc1cccnc1Nc1ccc(F)c([C@@]2(C)N=C(N)COC2C(F)F)c1 (single isomer, unassigned) [Compound 4, (5R,6R*)-6-(Difluoromethyl)-5-{2-fluoro-5-[(3-methoxypyridin-2-yl)amino]phenyl}-5-methyl-5,6-dihydro-2H-1,4-oxazin-3-amine] | 58.9 | 9.12 | 10.5 | 136.93 |
| COc1cccnc1Nc1cccc([C@@]2(C3CC3)N=C(N)CO[C@@]2(F)C(F)(F)F)c1 [Compound 1, (5R,6S)-5-cyclopropyl-6-fluoro-5-{3-[(3-methoxypyridin-2-yl)amino]phenyl}-6-(trifluoromethyl)-5,6-dihydro-2H-1,4-oxazin-3-amine] | 26.3 | 60.3 | 53.7 |  |
| COc1cccnc1Nc1ccc(F)c([C@@]2(C)N=C(N)CO[C@@H]2F)c1 [Compound 2, (5R,6R)-6-fluoro-5-{2-fluoro-5-[(3-methoxypyridin-2-yl)amino]phenyl}-5-methyl-5,6-dihydro-2H-1,4-oxazin-3-amine] | 162 | 24 | 19.5 |  |
| C[C@]1(c2cc(Nc3ncccn3)ccc2F)N=C(N)CO[C@H]1C(F)(F)F [Compound 7, (5R,6R)-5-[2-fluoro-5-(pyrimidin-2-ylamino)phenyl]-5-methyl-6-(trifluoromethyl)-5,6-dihydro-2H-1,4-oxazin-3-amine] | 3720 | 759 | 832 |  |
| COc1nccnc1Nc1ccc(F)c([C@@]2(C)N=C(N)CO[C@@H]2F)c1 [Compound 8, (5R,6R)-6-fluoro-5-{2-fluoro-5-[(3-methoxypyrazin-2-yl)amino]phenyl}-5-methyl-5,6-dihydro-2H-1,4-oxazin-3-amine] | 309 | 129 | 138 |  |
| CC1(c2cc(Nc3ncccc3C#N)ccc2F)N=C(N)COC1F (stereo not shown) [Compound 9] | 224 | 129 | 87.1 |  |

Results, then the molecule that gave them:

| IC50 (BACE1) [nM] | IC50 [1] [nM] | IC50 [2] [nM] | melting point [°C] | Compound |
| --- | --- | --- | --- | --- |
| 759 | 105 | 89.1 |  | COc1cccnc1Nc1ccc(F)c([C@@]2(C)N=C(N)COC2=C(F)F)c1 [Compound 3, (5R)-6-(difluoromethylidene)-5-{2-fluoro-5-[(3-methoxyPyridin-2-yl)amino]phenyl}-5-methyl-5,6-dihydro-2H-1,4-oxazin-3-amine] |
| 1950 | 1260 | 1100 |  | C[C@]1(c2cc(Nc3ncccn3)ccc2F)N=C(N)CO[C@@H]1F [Compound 5, (5R,6R)-6-fluoro-5-[2-fluoro-5-(pyrimidin-2-ylamino)phenyl]-5-methyl-5,6-dihydro-2H-1,4-oxazin-3-amine] |
| 138 | 21.4 | 20.9 |  | COc1cccnc1Nc1ccc(F)c([C@@]2(C)N=C(N)CO[C@H]2C(F)(F)F)c1 [Compound 6, (5R,6R)-5-{2-fluoro-5-[(3-methoxypyridin-2-yl)amino]phenyl}-5-methyl-6-(trifluoromethyl)-5,6-dihydro-2H-1,4-oxazin-3-amine] |
